Experimental data: ChEMBL document CHEMBL2390877, “Structural requirements for inhibitory effects of bisphenols on the activity of the sarco/endoplasmic reticulum calcium ATPase” (Bioorg Med Chem, 2013)
The source made the active and inactive calls. The rule behind the calls is not given here.

Columns and labels:
[1] = Inhibition of rabbit skeletal muscle sarco/endoplasmic reticulum calcium ATPase assessed as inhibition of ATP hydrolysis by spectrophotometric analysis; set-up: species or system Oryctolagus cuniculus
[2] = species on record: Homo sapiens; assay: Inhibition of sarco/endoplasmic reticulum calcium ATPase in human GM08333 cells assessed as inhibition of calcium ion uptake at 50 uM measured for 1 min by Fura-2AM staining assay; format: cell-based
[3] = system: Serum; assay: Drug uptake in human serum; format: ADME, cell-free

## Nc1ccc(C(c2ccc(N)cc2)(C(F)(F)F)C(F)(F)F)cc1
[1]
  IC50: Not Active

## O=C(c1ccc(O)cc1)c1ccc(O)cc1
[1]; read-out: IC50
  IC50: 200 µM

## CC(C)(c1cc(N)c(O)c(N)c1)c1cc(N)c(O)c(N)c1
[1]
  IC50: Not Active

## Oc1ccc(C(c2ccc(O)cc2)(C(F)(F)F)C(F)(F)F)cc1
[1]
  IC50: Not Active

## Nc1cc(C(c2ccc(O)c(N)c2)(C(F)(F)F)C(F)(F)F)ccc1O
[1]
  IC50: Not Active

## Oc1c(F)cc(C(c2cc(F)c(O)c(F)c2)(C(F)(F)F)C(F)(F)F)cc1F
[1]; read-out: IC50
  IC50: 2.8 µM

## CC(C)(c1cc(Br)c(OCCO)c(Br)c1)c1cc(Br)c(OCCO)c(Br)c1
[1]
  IC50: Not Active

## Nc1ccc(C2(c3ccc(N)cc3)CCCCC2)cc1
[1]
  IC50: Not Active

## Oc1c(Cl)cc(Cl)cc1Cc1cc(Cl)cc(Cl)c1O
[2]
  inhibition: Active
[1]; read-out: IC50
  IC50: 31 µM

## CC(CCC(=O)O)(c1cc(Cl)c(O)c(Cl)c1)c1cc(Cl)c(O)c(Cl)c1
[1]; read-out: IC50
  IC50: 25 µM

## Oc1c(Cl)cc(Cl)c(Cl)c1Cc1c(O)c(Cl)cc(Cl)c1Cl [HEXACHLOROPHENE]
[2]
  inhibition: Active
[1]; read-out: IC50
  IC50: 4 µM

## Cc1cc(C(C)(C)c2ccc(O)c(C)c2)ccc1O
[1]; read-out: IC50
  IC50: 24 µM

## CC(c1ccc(O)cc1)c1ccc(O)cc1
[1]; read-out: IC50
  IC50: 90 µM

## CC(C)(c1ccc(O)c(-c2ccccc2)c1)c1ccc(O)c(-c2ccccc2)c1
[2]
  inhibition: Active
[1]; read-out: IC50
  IC50: 91 µM

## CC(C)(C)c1cc(Cc2cc(C(C)(C)C)c(O)c(C(C)(C)C)c2)cc(C(C)(C)C)c1O
[1]; read-out: IC50
  IC50: 16 µM

## CC(C)(c1ccc(O)c(C2CCCCC2)c1)c1ccc(O)c(C2CCCCC2)c1
[2]
  inhibition: Active
[1]; read-out: IC50
  IC50: 94 µM

## CC(C)(c1cc(Cl)c(O)c(Cl)c1)c1cc(Cl)c(O)c(Cl)c1
[2]
  inhibition: Active
[1]; read-out: IC50
  IC50: 5.5 µM

## CC(C)(c1ccc(O)cc1)c1ccc(O)cc1 [BISPHENOL A]
[1]; read-out: IC50
  IC50: 140 µM

## CC(C)(c1cc(Br)c(OCC2CO2)c(Br)c1)c1cc(Br)c(OCC2CO2)c(Br)c1 (stereo not drawn)
[1]
  IC50: Not Active

## CC(C)(c1cc(Br)c(O)c(Br)c1)c1cc(Br)c(O)c(Br)c1
[2]
  inhibition: Active
[3]
  Drug uptake: 0.3 µM
[1]; read-out: IC50
  IC50: 4.7 µM

## CC(C)c1cc(C(C)(C)c2ccc(O)c(C(C)C)c2)ccc1O
[1]; read-out: IC50
  IC50: 3.4 µM

## Cc1ccc(O)c(Cc2cc(C)ccc2O)c1
[1]; read-out: IC50
  IC50: 300 µM

## C=CCc1cc(C(C)(C)c2ccc(O)c(CC=C)c2)ccc1O
[1]; read-out: IC50
  IC50: 2.2 µM

## Oc1ccc(C2(c3ccc(O)cc3)CCCCC2)cc1
[1]; read-out: IC50
  IC50: 27 µM

## Oc1ccc(Cc2ccc(O)cc2)cc1
[1]
  IC50: Not Active

## Cc1cc(C(C)(C)c2cc(C)c(O)c(C)c2)cc(C)c1O
[1]; read-out: IC50
  IC50: 2.6 µM
